From US12673041B2, “4-aminobut-2-enamide derivatives and salt thereof” (TAIHO PHARMACEUTICAL CO., LTD., priority 2019, dated 2026) come the findings set out here.

pIC50: −log10 of the molar value.

The target of assay [1] is Gppcp-bound recombinant K-Ras4B G12C mutant protein (amino acids 1-169, C51S/C80L/C118S) (Homo sapiens, UniProt P01116, C118S/C51S/C80L/G12C). Nature of the assay: KRASG12C binding assay (LC-MS compound binding rate). Particulars: test compound final concentration 0.5 μM, 25° C., 1 hour. The method, then: As test compounds for the KRASG12C binding assay, the compounds obtained in the “Preparation of Compounds” section were used. Sample solutions each containing a test compound were prepared in the form of a 10 mM DMSO solution.
Gppcp-bound recombinant K-Ras4B G12C mutant protein (amino acids 1-169, C51S/C80L/C118S, SEQ ID NO:1) was diluted with a buffer (1×TBS, 0.1 mM TCEP, 0.25 mM MgCl2, 50 μM Gppcp) to prepare a 50 nM protein solution. K-Ras4B is the major splicing variant of K-Ras. Amino acid sequence of residues 1 to 150 including the compounds' binding region of K-Ras4B is exactly same as that of K-Ras4A, the other splicing variant (Oncotarget. 2016 Jul. 19; 7(29): 46717-46733). A sample solution containing 10 mM test compound was diluted ten-fold with DMSO to make a 1 mM sample solution, and then diluted twenty-fold with DMSO to make a 50 μM sample solution. 1 μL of a 50 μM sample solution was added to 100 μL of a 50 nM protein solution to adjust the final concentration of a test compound to be 0.5 μM in the mixture. The mixtures were stored in an incubator at 25° C. for 1 hour, and 10 μL of a 1×TBS solution containing 2% formic acid was added to stop the reaction, followed by LC-MS measurement. LC-MS measurement was performed using Xevo G2-S Q-Tof manufactured by Waters, and reverse-phase chromatography was performed with a desalting column. A mass spectrum of positive ions was obtained by electrospray. For a mass spectrum, a spectrum of polyvalent ions was collectively converted to a molecular weight by using OpenLynx software by the MaxEnt technique, and a compound binding rate was calculated from the ratio of the signal intensity of a peak that corresponds to the molecular weight of the protein to the signal intensity of a peak that corresponds to the molecular weight of the protein conjugated with the compound.
The binding assay of the test compounds was conducted at a final concentration of 0.5 μM. A binding rate of 80% or more is rated “A”, a binding rate of 60% or more and less than 80% is rated “B”, a binding rate of 40% or more and less than 60% is rated “C”, a binding rate of 20% or more and less than 40% is rated “D”, and a binding rate of less than 20% is rated “E”. N.D.=not determined. Binding rate % is the ratio of KRAS signal intensity at the molecular weight of one molecule adduct to the sum of all the KRAS signal intensity (unbound form and adducts) in mass spectrum.
Thus, binding rate 100% means that only the one molecule adduct was observed without any unbound KRAS.

Assay [2] addresses T1, GMPPNP-bound KRAS G12C protein and cRAF RAS-binding domain (cRAF-RBD) (Homo sapiens, UniProt P01116, G12C).
T1 construct: made in house; host or cells: E. coli
Nature of the assay: Inhibitory activity on interaction between KRAS G12C and cRAF (Alpha technology). The class given is biochemical. The conditions noted are these: GMPPNP-bound KRAS G12C incubated with compound at 25° C. for 1 hour, then cRAF-RBD, Alpha signal; read-out: IC50. As to the method:
Interaction between recombinant K-Ras4B G12C mutant protein (amino acids 1-169, SEQ ID NO:2) and cRAF RAS-binding domain (cRAF-RBD, amino acids 50-132, Jena Biosciences GmbH) was measured using Alpha technology (PerkinElmer Inc.).
Recombinant KRAS G12C protein with an N-terminal His-tag was expressed in E. coli and purified by affinity chromatography. To prepare GTP-bound form and GDP-bound form of KRAS G12C protein, 50 μM KRAS G12C protein was incubated with 1 mM GMPPNP (Guanosine-5′-[(β,γ)-imido]triphosphate, Tetralithium salt) (Jena Bioscience GmbH) and 1 mM GDP, respectively, in a loading buffer (20 mM Tris-HCl (pH 7.5), 50 mM NaCl, 1 mM DTT and 2.5 mM EDTA) for 1 hour on ice. After the incubation, MgCl2 was added to a final concentration of 10 mM, followed by incubation at room temperature for 30 minutes. The mixture was allowed to pass through a NAP-5 column to remove free nucleotides and purified, and the resultant nucleotide-bound KRAS G12C protein was used for compound evaluation.
For the measurement of the inhibitory activity of compounds on interaction between KRAS G12C and cRAF-RBD, GMPPNP-bound KRAS G12C protein was incubated with various concentrations of compound in a reaction buffer (20 mM Tris-HCl (pH 7.5), 100 mM NaCl, 1 mM MgCl2, 1 mM TCEP, 0.1% Tween 20) at 25° C. for 1 hour. After the incubation, recombinant cRAF-RBD and Alpha detection reagents were added and incubated at room temperature for 1.5 hours for binding. Interaction 5 of KRAS G12C and cRAF-RBD was monitored by measuring Alpha signal. Inhibition % was calculated using the signal from the reaction without test compound (DMSO control) as 0% inhibition and the signal from the reaction using GDP-bound KRAS G12C in place of GMPPNP-bound KRAS G12C as 100% inhibition. IC50 values were calculated from dose titration curve using curve fitting by XLfit software (IDBS).

With `CO[C@H]1CC[C@H](NC/C=C/C(=O)Nc2ccc(C(=O)c3ccc4c(-c5c(Cl)ncn5C(C)C)cccn34)cc2C#N)CC1` [Example 74, (E)-N-(4-(8-(4-chloro-1-isopropyl-1H-imidazol-5-yl)indolizine-3-carbonyl)-2-cyanophenyl)-4-(((1r,4r)-4-methoxycyclohexyl)amino)but-2-enamide], the binding rate entry in assay [1] is “B (a binding rate of 60% or more and less than 80% is rated “B”)”. For the same molecule, the pIC50 – broadly, −log10 of the IC50, conventionally taken in molar units – in assay [2] was 6.77.

For the molecule `COc1ccc(Cl)c(-c2cccc(NC(=O)c3ccc(NC(=O)/C=C/CNC4CCN(S(C)(=O)=O)CC4)c(C#N)c3)c2)c1OC` [Example 11, (E)-N-(6′-chloro-2′,3′-dimethoxy-[1,1′-biphenyl]-3-yl)-3-cyano-4-(4-((1-(methylsulfonyl)piperidin-4-yl)amino)but-2-enamido)benzamide], in assay [1], the binding rate result was “B (a binding rate of 60% or more and less than 80% is rated “B”)”. In addition, the pIC50 in assay [2] was 6.20.

Regarding `COCc1nc2cc(-c3cccc(NC(=O)c4ccc(NC(=O)/C=C/CNC5CCC5)c(C#N)c4)c3)c(C(F)(F)F)cc2n1C` [Example 26, (E)-3-cyano-4-(4-(cyclobutylamino)but-2-enamido)-N-(3-(2-(methoxymethyl)-1-methyl-6-(trifluoromethyl)-1H-benzo[d]imidazol-5-yl)phenyl)benzamide], in assay [1], the binding rate result is “C (a binding rate of 40% or more and less than 60% is rated “C”)”. Moreover, the pIC50 in assay [2] was 6.38.

As for `COCc1nc2cc(-c3cccc(NC(=O)c4ccc(NC(=O)/C=C/CNC5(C)CCC6(CC5)OCCO6)c(C#N)c4)c3)c(C(F)(F)F)cc2n1C` [Example 24, (E)-3-cyano-N-(3-(2-(methoxymethyl)-1-methyl-6-(trifluoromethyl)-1H-benzo[d]imidazol-5-yl)phenyl)-4-(4-((8-methyl-1,4-dioxaspiro[4.5]decan-8-yl)amino)but-2-enamido)benzamide], in assay [1], the binding rate entry was “A (A binding rate of 80% or more is rated “A”)”. The pIC50 in assay [2] was 6.82.

Take `CCc1nc2cc(-c3cccc(NC(=O)c4ccc(NC(=O)/C=C/CN(C)C(C)(C)C)c(C#N)c4)c3)c(C(F)(F)F)cc2n1C` [Example 2, (E)-4-(4-(tert-butyl(methyl)amino)but-2-enamido)-3-cyano-N-(3-(2-ethyl-1-methyl-6-(trifluoromethyl)-1H-benzo[d]imidazol-5-yl)phenyl)benzamide]: the binding rate result in assay [1] is “D (a binding rate of 20% or more and less than 40% is rated “D”)”. Besides, the pIC50 in assay [2] is 6.06.

`CO[C@H]1CC[C@H](NC/C=C/C(=O)Nc2ccc(C(=O)c3nn(C)c4c(-c5cc6ncn(C)c6cc5C)cccc34)cc2C#N)CC1` [Example 58, (E)-N-(2-cyano-4-(7-(1,6-dimethyl-1H-benzo[d]imidazol-5-yl)-1-methyl-1H-indazole-3-carbonyl)phenyl)-4-(((1r,4r)-4-methoxycyclohexyl)amino)but-2-enamide]: the binding rate entry in assay [1] was “B (a binding rate of 60% or more and less than 80% is rated “B”)”. In addition, the pIC50 in assay [2] is 6.62.

With `Cn1cc2c(Cl)c(-c3cccn4c(C(=O)c5ccc(NC(=O)/C=C/CNC(C)(C)C)c(C#N)c5)ccc34)ccc2n1` [Example 52, (2E)-4-(tert-Butylamino)-N-{4-[8-(4-chloro-2-methyl-2H-indazol-5-yl)indolizine-3-carbonyl]-2-cyanophenyl}but-2-enamide], in assay [1], the binding rate result was “B (a binding rate of 60% or more and less than 80% is rated “B”)”. The pIC50 in assay [2] was 6.59.

On to `CO[C@H]1CC[C@H](NC/C=C/C(=O)Nc2ccc(C(=O)Nc3cc(F)c(F)c(-c4cc5ncn(C)c5cc4C)c3)cc2C#N)CC1` [Example 18, 3-cyano-N-(3-(1,6-dimethyl-1H-benzo[d]imidazol-5-yl)-4,5-difluorophenyl)-4-((E)-4-(((1r,4r)-4-methoxycyclohexyl)amino)but-2-enamido)benzamide], for which the binding rate result in assay [1] was “A (A binding rate of 80% or more is rated “A”)”. Also, in assay [2], the pIC50 is 6.85.

For the molecule `CO[C@H]1C[C@H](NC/C=C/C(=O)Nc2ccc(C(=O)Nc3cccc(-c4cc5nc6n(c5cc4C(F)(F)F)CCC6)c3)cc2C#N)C1` [Example 28, 3-cyano-4-((E)-4-(((1r,3r)-3-methoxycyclobutyl)amino)but-2-enamido)-N-(3-(7-(trifluoromethyl)-2,3-dihydro-1H-benzo[d]pyrrolo[1,2-a]imidazol-6-yl)phenyl)benzamide], in assay [1], the binding rate result is on record as “A (A binding rate of 80% or more is rated “A”)”. In assay [2], the pIC50 was 7.00.

Regarding `COc1ccccc1-c1cccn2c(C(=O)c3ccc(NC(=O)/C=C/CN[C@H]4CC[C@H](OC)CC4)c(C#N)c3)ccc12` [Example 40, (E)-N-(2-cyano-4-(8-(2-methoxyphenyl)indolizine-3-carbonyl)phenyl)-4-(((1r,4r)-4-methoxycyclohexyl)amino)but-2-enamide], the binding rate entry in assay [1] is “B (a binding rate of 60% or more and less than 80% is rated “B”)”. In addition, the pIC50 in assay [2] is 6.70.

Regarding `Cc1ccc2c(cnn2C)c1-c1cccn2c(C(=O)c3ccc(NC(=O)/C=C/CNC(C)(C)C)c(C#N)c3)ccc12` [Example 53, (2E)-4-(tert-Butylamino)-N-{2-cyano-4-[8-(1,5-dimethyl-1H-indazol-4-yl)indolizine-3-carbonyl]phenyl}but-2-enamide], in assay [1], the binding rate entry was “A (A binding rate of 80% or more is rated “A”)”. In addition, in assay [2], the pIC50 is 6.82.

As for `CO[C@H]1CC[C@H](NC/C=C/C(=O)Nc2ccc(C(=O)c3ccc4c(-c5ccccc5Cl)cccn34)cc2C#N)CC1` [Example 45, (E)-N-(4-(8-(2-chlorophenyl)indolizine-3-carbonyl)-2-cyanophenyl)-4-(((1r,4r)-4-methoxycyclohexyl)amino)but-2-enamide], in assay [1], the binding rate entry is “B (a binding rate of 60% or more and less than 80% is rated “B”)”. In addition, the pIC50 in assay [2] is 6.49.

As to `Cc1nc2c(Cl)c(-c3cccc(NC(=O)c4ccc(NC(=O)/C=C/CNC5CCC(F)(F)CC5)c(C#N)c4)c3)c(Cl)cc2n1C` [Example 20, (E)-3-cyano-N-(3-(4,6-dichloro-1,2-dimethyl-1H-benzo[d]imidazol-5-yl)phenyl)-4-(4-((4,4-difluorocyclohexyl)amino)but-2-enamido)benzamide], in assay [1], the binding rate result is “A (A binding rate of 80% or more is rated “A”)”. Further, the pIC50 in assay [2] was 6.82.

Take `Cc1cc2c(cnn2C)cc1-c1cccn2c(C(=O)c3ccc(NC(=O)/C=C/CNC(C)(C)C)c(C#N)c3)ccc12` [Example 54, (2E)-4-(tert-Butylamino)-N-{2-cyano-4-[8-(1,6-dimethyl-1H-indazol-5-yl)indolizine-3-carbonyl]phenyl}but-2-enamide]: the binding rate entry in assay [1] is reported as “A (A binding rate of 80% or more is rated “A”)”. In assay [2], the pIC50 was 6.74.
